From patent publication US6525001B1, “Substituted pyrimidine and pyridine herbicides” (Mid-American Commercialization Corporation, priority 1997, dated 2003)

How the values were obtained:
Format in all cases: in vivo
Set-up in all cases: key: 0 is no effect; 10 is complete control
[1] = tested on: bedstraw (Galium aparine); assay: Test B pre-/postemergence; conditions: for Bedstraw plant response rating: Preemergence
Outline: (§1)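 Compounds in a surfactant-containing, non-phytotoxic solvent blend are applied to freshly planted seed (preemergence) and, concurrently, to seedlings of 2 to 18 cm at 1–4 leaves (postemergence). Plants stay in the greenhouse twelve to sixteen days and are then scored visually from 0 (no effect) to 10 (complete control).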

[2] = tested on: blackgrass (Alopecurus myosuroides); assay: Test B pre-/postemergence; conditions: for Blackgrass plant response rating: Preemergence
Outline: as §1

[3] = tested on: broadleaf signalgrass (Brachiaria decumbens); assay: Test B pre-/postemergence; conditions: for B. signalgrass plant response rating: Preemergence
Outline: as §1

[4] = tested on: cocklebur (Xanthium strumarium); assay: Test B pre-/postemergence; conditions: for Cocklebur plant response rating: Preemergence
Outline: as §1

[5] = tested on: corn (Zea mays); assay: Test B pre-/postemergence; conditions: for Corn plant response rating: Preemergence
Outline: as §1

[6] = tested on: crabgrass (Digitaria sanguinalis); assay: Test B pre-/postemergence; conditions: for Crabgrass plant response rating: Preemergence
Outline: as §1

[7] = tested on: giant foxtail (Setaria faberii); assay: Test B pre-/postemergence
Outline: as §1

[8] = tested on: momingglory (Ipomoea hederacea); assay: Test B pre-/postemergence
Outline: as §1

[9] = tested on: pigweed (Amaranthus retroflexus); assay: Test B pre-/postemergence
Outline: as §1

[10] = tested on: purple nutsedge (Cyperus rotundus); assay: Test B pre-/postemergence
Outline: as §1

[11] = tested on: rape (Brassica napus); assay: Test B pre-/postemergence
Outline: as §1

[12] = tested on: soybean (Glycine max); assay: Test B pre-/postemergence
Outline: as §1

[13] = tested on: sugar beet (Beta vulgaris); assay: Test B pre-/postemergence
Outline: as §1

[14] = tested on: velvetleaf (Abutilon theophrasti); assay: Test B pre-/postemergence
Outline: as §1

[15] = tested on: wheat (Triticum aestivum); assay: Test B pre-/postemergence
Outline: as §1

[16] = tested on: wild oat (Avena fatua); assay: Test B pre-/postemergence
Outline: as §1

[17] = tested on: bamyardgrass (Echinochloa crus-galli); assay: Test B flood test
Outline: (§2)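 Read-out is a visual response score from 0 (no effect) to 10 (complete control), assigned by comparison with untreated controls. Treatment was applied at the 2-leaf stage, and plants stayed in the greenhouse for twelve to sixteen days before scoring.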

[18] = tested on: duck salad (Heteranthera limosa); assay: Test B flood test
Outline: as §2

[19] = tested on: rice (Oryza sativa); assay: Test B flood test
Outline: as §2

[20] = tested on: smallflower flatsedge (Cyperus difformis); assay: Test B flood test
Outline: as §2

[21] = Rate 250 g/ha, Postemergence (so in the source)
[22] = Rate 62 g/ha, Postemergence (flood test)
[23] = Rate 125 g/ha, Postemergence, flood test
[24] = Rate 250 g/ha, Postemergence (flood test species)
[25] = Rate 125 g/ha, Postemergence section (flood test species)

Cc1cnc(-c2ccccc2F)nc1Cc1cccc(C#N)c1 [Compound 37]
Plant response rating, Bedstraw ([1]; Rate 62 g/ha, Postemergence): 1
Bedstraw plant response rating ([1]; Rate 62 g/ha): 0
Plant response rating, Bedstraw ([1]; Rate 125 g/ha, Postemergence): 1
Bedstraw plant response rating ([1]; Rate 125 g/ha): 0
Plant response rating, Bedstraw [1, 21]: 0
Plant response rating, Blackgrass ([2]; Rate 62 g/ha, Postemergence): 0
Blackgrass plant response rating ([2]; Rate 62 g/ha): 0
Plant response rating, Blackgrass ([2]; Rate 125 g/ha, Postemergence): 0
Blackgrass plant response rating ([2]; Rate 125 g/ha): 0
Plant response rating, Blackgrass ([2]; Rate 250 g/ha, Postemergence): 0
Plant response rating, Blackgrass [2, 21]: 0
Plant response rating, B. signalgrass ([3]; Rate 62 g/ha, Postemergence): 0
B. signalgrass plant response rating ([3]; Rate 62 g/ha): 0
Plant response rating, B. signalgrass ([3]; Rate 125 g/ha, Postemergence): 0
B. signalgrass plant response rating ([3]; Rate 125 g/ha): 0
Plant response rating, B. signalgrass ([3]; Rate 250 g/ha, Postemergence): 0
Plant response rating, B. signalgrass ([3]; Rate 250 g/ha, Postemergence as printed in head r139 (second section for compounds 26-50)): 0
Plant response rating, Cocklebur ([4]; Rate 62 g/ha, Postemergence): 1
Cocklebur plant response rating ([4]; Rate 62 g/ha): 0
Plant response rating, Cocklebur ([4]; Rate 125 g/ha, Postemergence): 2
Cocklebur plant response rating ([4]; Rate 125 g/ha): 0
Plant response rating, Cocklebur ([4]; Rate 250 g/ha, Postemergence): 3
Plant response rating, Cocklebur [4, 21]: 0
Plant response rating, Corn ([5]; Rate 62 g/ha, Postemergence): 1
Corn plant response rating ([5]; Rate 62 g/ha): 0
Plant response rating, Corn ([5]; Rate 125 g/ha, Postemergence): 1
Corn plant response rating ([5]; Rate 125 g/ha): 0
Plant response rating, Corn ([5]; Rate 250 g/ha, Postemergence): 1
Plant response rating, Corn [5, 21]: 0
Plant response rating, Crabgrass ([6]; Rate 62 g/ha, Postemergence): 0
Crabgrass plant response rating ([6]; Rate 62 g/ha): 0
Plant response rating, Crabgrass ([6]; Rate 125 g/ha, Postemergence): 0
Crabgrass plant response rating ([6]; Rate 125 g/ha): 0
Plant response rating, Crabgrass ([6]; Rate 250 g/ha, Postemergence): 1
Plant response rating, Crabgrass [6, 21]: 0
Plant response rating, Giant foxtail ([7]; Rate 62 g/ha, Postemergence): 0
Giant foxtail plant response rating ([7]; Rate 62 g/ha, Preemergence): 0
Giant foxtail plant response rating ([7]; Rate 125 g/ha, Postemergence): 0
Giant foxtail plant response rating ([7]; Rate 125 g/ha, Preemergence): 0
Plant response rating, Giant foxtail ([7]; Rate 250 g/ha, Postemergence): 1
Plant response rating, Giant foxtail [7, 21]: 0
Plant response rating, Morningglory ([8]; Rate 62 g/ha, Postemergence): 1
Morningglory plant response rating ([8]; Rate 62 g/ha, Preemergence): 0
Morningglory plant response rating ([8]; Rate 125 g/ha, Postemergence): 1
Morningglory plant response rating ([8]; Rate 125 g/ha, Preemergence): 0
Plant response rating, Morningglory ([8]; Rate 250 g/ha, Postemergence): 1
Plant response rating, Morningglory [8, 21]: 0
Plant response rating, Redroot pigweed ([9]; Rate 62 g/ha, Postemergence): 1
Redroot pigweed plant response rating ([9]; Rate 62 g/ha, Preemergence): 0
Redroot pigweed plant response rating ([9]; Rate 125 g/ha, Postemergence): 1
Redroot pigweed plant response rating ([9]; Rate 125 g/ha, Preemergence): 0
Plant response rating, Redroot pigweed ([9]; Rate 250 g/ha, Postemergence): 7
Plant response rating, Redroot pigweed [9, 21]: 0
Plant response rating, Nutsedge ([10]; Rate 62 g/ha, Postemergence): 0
Nutsedge plant response rating ([10]; Rate 62 g/ha, Preemergence): 0
Nutsedge plant response rating ([10]; Rate 125 g/ha, Postemergence): 0
Nutsedge plant response rating ([10]; Rate 125 g/ha, Preemergence): 0
Plant response rating, Nutsedge ([10]; Rate 250 g/ha, Postemergence): 0
Plant response rating, Nutsedge [10, 21]: 0
Plant response rating, Rape ([11]; Rate 62 g/ha, Postemergence): 1
Rape plant response rating ([11]; Rate 62 g/ha, Preemergence): 0
Rape plant response rating ([11]; Rate 125 g/ha, Postemergence): 3
Rape plant response rating ([11]; Rate 125 g/ha, Preemergence): 0
Plant response rating, Rape ([11]; Rate 250 g/ha, Postemergence): 4
Plant response rating, Rape [11, 21]: 0
Plant response rating, Soybean ([12]; Rate 62 g/ha, Postemergence): 0
Soybean plant response rating ([12]; Rate 62 g/ha, Preemergence): 0
Soybean plant response rating ([12]; Rate 125 g/ha, Postemergence): 0
Plant response rating, Soybean ([12]; Rate 125 g/ha, Preemergence): 0
Plant response rating, Soybean ([12]; Rate 250 g/ha, Postemergence): 0
Plant response rating, Soybean [12, 21]: 0
Plant response rating, Sugarbeets ([13]; Rate 62 g/ha, Postemergence): 1
Sugarbeets plant response rating ([13]; Rate 62 g/ha, Preemergence): 0
Sugarbeets plant response rating ([13]; Rate 125 g/ha, Postemergence): 5
Plant response rating, Sugarbeets ([13]; Rate 125 g/ha, Preemergence): 0
Plant response rating, Sugarbeets ([13]; Rate 250 g/ha, Postemergence): 5
Plant response rating, Sugarbeets [13, 21]: 0
Plant response rating, Velvetleaf ([14]; Rate 62 g/ha, Postemergence): 0
Velvetleaf plant response rating ([14]; Rate 62 g/ha, Preemergence): 0
Velvetleaf plant response rating ([14]; Rate 125 g/ha, Postemergence): 0
Plant response rating, Velvetleaf ([14]; Rate 125 g/ha, Preemergence): 0
Plant response rating, Velvetleaf ([14]; Rate 250 g/ha, Postemergence): 1
Plant response rating, Velvetleaf [14, 21]: 0
Wheat plant response rating ([15]; Rate 62 g/ha, Postemergence): 0
Wheat plant response rating ([15]; Rate 62 g/ha, Preemergence): 0
Wheat plant response rating ([15]; Rate 125 g/ha, Postemergence): 0
Plant response rating, Wheat ([15]; Rate 125 g/ha, Preemergence): 0
Plant response rating, Wheat ([15]; Rate 250 g/ha, Postemergence): 0
Plant response rating, Wheat [15, 21]: 0
Wild oats plant response rating ([16]; Rate 62 g/ha, Postemergence): 0
Wild oats plant response rating ([16]; Rate 62 g/ha, Preemergence): 0
Wild oats plant response rating ([16]; Rate 125 g/ha, Postemergence): 0
Plant response rating, Wild oats ([16]; Rate 125 g/ha, Preemergence): 0
Plant response rating, Wild oats ([16]; Rate 250 g/ha, Postemergence): 0
Plant response rating, Wild oats [16, 21]: 0
Plant response rating, Barnyardgrass [17, 22]: 0
Plant response rating, Barnyardgrass [17, 23]: 0
Plant response rating, Barnyardgrass [17, 24]: 0
Plant response rating, Ducksalad [18, 22]: 0
Plant response rating, Ducksalad [18, 23]: 0
Plant response rating, Ducksalad [18, 24]: 0
Plant response rating, Rice [19, 22]: 0
Rice plant response rating [19, 25]: 0
Plant response rating, Rice [19, 24]: 0
Plant response rating, S. Flatsedge [20, 22]: 0
S. Flatsedge plant response rating [20, 25]: 0
Plant response rating, S. Flatsedge [20, 24]: 0
